Where a name gives a salt, the structure may show the parent alone.
Molecular target: T1, human histamine H4 receptor (Homo sapiens, UniProt Q9H3N8)
T1 construct: expressed in transfected cells; host or cells: SK-N-MC cells or COS7 cells, transiently transfected; cell membranes used
Assay: Binding Assay on Recombinant Human Histamine H4 Receptor
Conditions: competition binding with 3H-histamine (5 nM), membranes of SK-N-MC or COS7 cells expressing human H4 receptor; Cheng-Prusoff, KD 5 nM; average of results obtained; read-out: Ki
Method in brief: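 Membranes from SK-N-MC or COS7 cells transiently transfected with human H4 receptor were incubated with ³H-histamine (5-70 nM); nonspecific binding defined with 10,000 nM histamine. Bound radioactivity collected by GF/C filtration and scintillation counting; test compounds assessed by displacement of ³H-ligand binding across concentrations.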

Row | SMILES | Ki [µM]
1 | OCCNc1nc(N2CCNCC2)c2oc3ccc(Cl)cc3c2n1 [Example 160, 2-(8-Chloro-4-piperazin-1-yl-benzo[4,5]furo[3,2-d]pyrimidin-2-ylamino)-ethanol] | > 10
2 | N[C@H]1CCCN(c2nc(NCCO)nc3c2oc2ccc(Cl)cc23)C1 [Example 161, (S)-2-[4-(3-Amino-piperidin-1-yl)-8-chloro-benzo[4,5]furo[3,2-d]pyrimidin-2-ylamino]-ethanol] | > 10
3 | NC1CN(c2nc(NCCO)nc3c2oc2ccc(Cl)cc23)C1 [Example 162, 2-[4-(3-Amino-azetidin-1-yl)-8-chloro-benzo[4,5]furo[3,2-d]pyrimidin-2-ylamino]-ethanol] | > 10

Second part, the molecule after the results:

Row | Ki [µM] | SMILES
4 | > 10 | Nc1nc(N2CC(N)C2)c2oc3cccc(Cl)c3c2n1 [Example 156, 4-(3-Amino-azetidin-1-yl)-9-chloro-benzo[4,5]furo[3,2-d]pyrimidin-2-ylamine trifluoroacetic acid salt]
5 | 0.18 | COc1ccc2c(c1)sc1c(N3CCN(C)CC3)nc(N)nc12 [Example 159, 7-Methoxy-4-(4-methyl-piperazin-1-yl)-benzo[4,5]thieno[3,2-d]pyrimidin-2-ylamine trifluoroacetic acid salt]
6 | 0.718 | CN1CCN(c2nc(N(C)C)nc3c2oc2ccc(Cl)cc23)CC1 [Example 163, [8-Chloro-4-(4-methyl-piperazin-1-yl)-benzo[4,5]furo[3,2-d]pyrimidin-2-yl]-dimethyl-amine]
